# Read-outs that look alike come from different tables or passages of the source.
# Experiments:
# Assay in all cases: KINOMEscan (ScanMAX) kinase profiling
# Format in all cases: binding
# panel of 468 kinases [1] = target: T1, panel of 468 kinases (Homo sapiens, UniProt Q14164); details: IKK-epsilon; 1 μM; read-out: % control
# T1 construct: purchased KINOMEscan (ScanMAX) service
# T1 sequence (Q14164 1-716): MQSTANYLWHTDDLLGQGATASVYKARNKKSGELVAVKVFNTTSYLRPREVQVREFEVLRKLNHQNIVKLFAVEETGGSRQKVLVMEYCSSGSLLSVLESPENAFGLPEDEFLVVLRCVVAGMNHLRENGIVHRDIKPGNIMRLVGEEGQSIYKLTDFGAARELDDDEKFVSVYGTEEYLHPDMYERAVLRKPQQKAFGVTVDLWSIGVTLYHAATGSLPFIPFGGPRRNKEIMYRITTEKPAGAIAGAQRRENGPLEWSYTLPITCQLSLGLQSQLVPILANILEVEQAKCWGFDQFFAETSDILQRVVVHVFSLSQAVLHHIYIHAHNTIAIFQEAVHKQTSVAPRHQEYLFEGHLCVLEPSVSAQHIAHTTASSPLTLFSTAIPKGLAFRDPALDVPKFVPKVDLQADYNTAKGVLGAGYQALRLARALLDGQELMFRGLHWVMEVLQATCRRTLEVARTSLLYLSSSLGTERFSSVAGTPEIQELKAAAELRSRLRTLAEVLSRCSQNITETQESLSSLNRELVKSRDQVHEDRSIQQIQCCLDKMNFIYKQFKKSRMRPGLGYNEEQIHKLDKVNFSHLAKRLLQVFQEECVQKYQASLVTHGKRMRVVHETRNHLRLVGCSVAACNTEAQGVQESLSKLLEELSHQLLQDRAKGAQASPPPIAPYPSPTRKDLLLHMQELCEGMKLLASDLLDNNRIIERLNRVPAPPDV
# panel of 468 kinases [2] = target: T2, panel of 468 kinases (Homo sapiens, UniProt O00444); details: PLK4; 1 μM; read-out: % control
# T2 construct: purchased KINOMEscan (ScanMAX) service
# T2 sequence (O00444 1-970): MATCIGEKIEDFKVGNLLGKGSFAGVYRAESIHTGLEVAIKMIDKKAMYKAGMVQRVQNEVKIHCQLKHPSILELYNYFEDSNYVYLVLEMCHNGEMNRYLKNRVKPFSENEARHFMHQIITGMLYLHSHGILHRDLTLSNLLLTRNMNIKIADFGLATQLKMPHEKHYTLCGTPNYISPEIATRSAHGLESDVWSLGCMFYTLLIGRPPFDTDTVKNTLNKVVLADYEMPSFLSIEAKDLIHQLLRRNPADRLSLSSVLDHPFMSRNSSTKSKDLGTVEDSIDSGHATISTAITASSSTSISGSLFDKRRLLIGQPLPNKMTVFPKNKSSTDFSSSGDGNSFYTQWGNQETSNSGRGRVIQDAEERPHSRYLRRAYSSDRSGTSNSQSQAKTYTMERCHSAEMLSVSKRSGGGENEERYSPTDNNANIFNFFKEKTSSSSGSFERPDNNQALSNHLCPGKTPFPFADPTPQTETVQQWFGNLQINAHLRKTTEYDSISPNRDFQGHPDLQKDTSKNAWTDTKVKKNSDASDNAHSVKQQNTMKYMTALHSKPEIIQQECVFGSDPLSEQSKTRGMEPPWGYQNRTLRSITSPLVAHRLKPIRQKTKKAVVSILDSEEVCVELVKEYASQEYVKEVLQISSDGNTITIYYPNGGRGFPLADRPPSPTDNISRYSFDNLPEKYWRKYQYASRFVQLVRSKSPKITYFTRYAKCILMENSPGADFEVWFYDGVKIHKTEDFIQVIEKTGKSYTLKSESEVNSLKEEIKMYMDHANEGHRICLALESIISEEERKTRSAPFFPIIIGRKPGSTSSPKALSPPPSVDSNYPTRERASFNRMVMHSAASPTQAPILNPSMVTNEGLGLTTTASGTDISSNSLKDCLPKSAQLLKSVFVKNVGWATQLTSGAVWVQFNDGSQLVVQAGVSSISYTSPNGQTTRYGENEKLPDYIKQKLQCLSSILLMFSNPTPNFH
# panel of 468 kinases [3] = target: T3, panel of 468 kinases (Homo sapiens, UniProt P51812); details: 1 μM, read-out: % control
# T3 construct: purchased KINOMEscan (ScanMAX) service
# T3 sequence (P51812 whole entry): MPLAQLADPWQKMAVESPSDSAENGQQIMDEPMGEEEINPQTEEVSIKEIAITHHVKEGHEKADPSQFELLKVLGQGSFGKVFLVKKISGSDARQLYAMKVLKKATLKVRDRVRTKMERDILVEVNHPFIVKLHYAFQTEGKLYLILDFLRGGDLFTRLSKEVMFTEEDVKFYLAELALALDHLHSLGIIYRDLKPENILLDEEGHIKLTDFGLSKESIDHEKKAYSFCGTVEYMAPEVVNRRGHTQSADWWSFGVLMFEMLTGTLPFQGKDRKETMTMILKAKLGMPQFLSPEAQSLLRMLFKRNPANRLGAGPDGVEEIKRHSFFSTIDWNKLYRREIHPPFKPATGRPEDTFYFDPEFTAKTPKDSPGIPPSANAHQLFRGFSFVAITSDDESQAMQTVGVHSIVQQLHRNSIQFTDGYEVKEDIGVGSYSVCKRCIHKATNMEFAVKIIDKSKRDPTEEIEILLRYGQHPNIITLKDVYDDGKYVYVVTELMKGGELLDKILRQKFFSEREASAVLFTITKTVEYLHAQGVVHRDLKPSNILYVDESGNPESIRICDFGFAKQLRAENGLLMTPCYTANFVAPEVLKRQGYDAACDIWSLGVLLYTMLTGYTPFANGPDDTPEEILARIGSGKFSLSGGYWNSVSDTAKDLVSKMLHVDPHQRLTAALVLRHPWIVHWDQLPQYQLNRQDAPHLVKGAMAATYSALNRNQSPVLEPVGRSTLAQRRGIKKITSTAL
# panel of 468 kinases [4] = target: T4, panel of 468 kinases (Homo sapiens, UniProt Q9HBY8); details: SGK2; 1 μM; read-out: % control
# T4 construct: purchased KINOMEscan (ScanMAX) service
# T4 sequence (Q9HBY8 1-367): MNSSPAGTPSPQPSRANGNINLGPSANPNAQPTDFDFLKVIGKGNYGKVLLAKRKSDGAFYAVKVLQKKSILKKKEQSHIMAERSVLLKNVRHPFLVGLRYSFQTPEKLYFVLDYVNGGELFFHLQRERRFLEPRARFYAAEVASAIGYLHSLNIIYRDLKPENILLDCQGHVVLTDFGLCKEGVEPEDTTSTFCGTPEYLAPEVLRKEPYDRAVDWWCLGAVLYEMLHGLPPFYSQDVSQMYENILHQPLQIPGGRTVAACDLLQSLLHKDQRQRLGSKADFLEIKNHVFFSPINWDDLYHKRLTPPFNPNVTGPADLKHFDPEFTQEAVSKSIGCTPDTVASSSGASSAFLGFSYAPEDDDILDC
Structure (SMILES),remaining binding at 1 µM (panel of 468 kinases [1]) [%],remaining binding at 1 µM (panel of 468 kinases [2]) [%],remaining binding at 1 µM (panel of 468 kinases [3]; RSK2(Kin.Dom.1-N-terminal)) [%],remaining binding at 1 µM (panel of 468 kinases [3]; RSK2(Kin.Dom.2-C-terminal)) [%],remaining binding at 1 µM (panel of 468 kinases [4]) [%]
"CNc1nc(Nc2ccc(C(=O)N3CCC(N4CCOCC4)CC3)c3c2OCO3)nc2[nH]cc(Cl)c12 [Compound 75, (7-((5-chloro-4-(methylamino)-7H-pyrrolo[2,3-d]pyrimidin-2-yl)amino)benzo[d][1,3]dioxol-4-yl)(4-morpholinopiperidin-1-yl)methanone]",47,9.6,71,31,37
"CNc1nc(Nc2ccc(S(=O)(=O)N3CCC(N4CCOCC4)CC3)cc2OC)nc2[nH]cc(Cl)c12 [Compound 12, 5-chloro-N2-(2-methoxy-4-((4-morpholinopiperidin-1-yl)sulfonyl)phenyl)-N4-methyl-7H-pyrrolo[2,3-d]pyrimidine-2,4-diamine]",98,22,88,28,95
"CNc1nc(Nc2ccc(P3(=O)CCN(C4CCOCC4)CC3)cc2OC)nc2[nH]cc(Cl)c12 [Compound 77, 4-(4-((5-chloro-4-(methylamino)-7H-pyrrolo[2,3-d]pyrimidin-2-yl)amino)-3-methoxyphenyl)-1-(tetrahydro-2H-pyran-4-yl)-1,4-azaphosphinane 4-oxide]",89,15,70,34,87

# Reference: patent publication US12479847B2 (DANA-FARBER CANCER INSTITUTE, INC., priority 2019, dated 2025)
